tested on: UWB1 cells; test: cells; conditions: read-out: IC50 (μM) UWB1 cells

Which IC50 does the source give for `COC(=O)C[C@H]1[C@]2(C)C3=C(C)[C@H](c4ccc(O[Si](C)(C)C(C)(C)C)cc4)C[C@H]3O[C@@H]2[C@@H]2OC(=O)[C@]3(C)C=CC(=O)[C@@]1(C)[C@@H]23` [S-117] here?
Its IC50 is 0.0788 µM.

For `COC(=O)C[C@H]1[C@@H]2CC3=C(C)[C@H](c4ccc(O[Si](C)(C)C(C)(C)C)cc4)C[C@H]3O[C@@H]2[C@@H]2OC(=O)[C@]3(C)C=CC(=O)[C@@]1(C)[C@@H]23` [S-118], which IC50 is on record?
The IC50 was 0.0815 µM.

With `COC(=O)C[C@H]1[C@@H]2CC3=C(C)[C@H](c4ccc(O[Si](C)(C)C(C)(C)C)cc4)C[C@@H]3O[C@@H]2[C@@H]2OC(=O)[C@]3(C)C=CC(=O)[C@@]1(C)[C@@H]23` [S-119] as the compound, how does the IC50 read?
Its IC50 is 0.188 µM.

For `COC(=O)C[C@H]1[C@@H]2CC3=C(C)[C@@H](c4ccc(O[Si](C)(C)C(C)(C)C)cc4)C[C@H]3O[C@@H]2[C@@H]2OC(=O)[C@]3(C)C=CC(=O)[C@@]1(C)[C@@H]23` [S-121], which IC50 is on record?
The IC50 was 0.19 µM.

How did the IC50 turn out when `COC(=O)C[C@H]1[C@@H]2CC3=C(C)[C@@H](c4ccc(O[Si](C)(C)C(C)(C)C)cc4)C[C@@H]3O[C@@H]2[C@@H]2OC(=O)[C@]3(C)C=CC(=O)[C@@]1(C)[C@@H]23` [S-122] was run?
The IC50 was 0.0534 µM.

For `COC(=O)C[C@H]1[C@@H]2CC3=C(C)[C@H](c4ccccc4O[Si](C)(C)C(C)(C)C)C[C@@H]3O[C@@H]2[C@@H]2OC(=O)[C@]3(C)C=CC(=O)[C@@]1(C)[C@@H]23` [S-127], which IC50 is on record?
The IC50 was 0.927 µM.

`COC(=O)C[C@H]1[C@]2(C)C3=C(C)[C@H](c4ccccc4O[Si](C)(C)C(C)(C)C)C[C@H]3O[C@@H]2[C@@H]2OC(=O)[C@]3(C)C=CC(=O)[C@@]1(C)[C@@H]23` [S-128] was tested. Which IC50 did it give?
The IC50 was 0.0908 µM.

Which IC50 does the source give for `COC(=O)C[C@H]1[C@@H]2CC3=C(C)[C@H](c4ccccc4O[Si](C)(C)C(C)(C)C)C[C@H]3O[C@@H]2[C@@H]2OC(=O)[C@]3(C)C=CC(=O)[C@@]1(C)[C@@H]23` [S-129] here?
The IC50 was 0.163 µM.

same assay, conditions: read-out: IC50 (μM) UWB1 cells, UWB1 cell viability

`COC(=O)C[C@H]1[C@]2(C)C3=C(C)[C@H](c4ccc(O)cc4)C[C@H]3O[C@@H]2[C@@H]2OC(=O)[C@]3(C)C=CC(=O)[C@@]1(C)[C@@H]23` [S-123] was tested. Which IC50 did it give?
The IC50 was 0.464 µM.

For `COC(=O)C[C@H]1[C@]2(C)C3=C(C)[C@H](c4ccc(OC(=O)C(C)(C)C)cc4)C[C@H]3O[C@@H]2[C@@H]2OC(=O)[C@]3(C)C=CC(=O)[C@@]1(C)[C@@H]23` [S-124], which IC50 is on record?
The IC50 was 0.564 µM.

Which IC50 does the source give for `COC(=O)C[C@H]1[C@@H]2CC3=C(C)[C@H](c4ccc(OC(=O)C(C)(C)C)cc4)C[C@@H]3O[C@@H]2[C@@H]2OC(=O)[C@]3(C)C=CC(=O)[C@@]1(C)[C@@H]23` [S-126] here?
Its IC50 is 0.141 µM.

`COC(=O)C[C@H]1[C@@H]2CC3=C(C)[C@H](c4ccc(OS(=O)(=O)C(F)(F)F)cc4)C[C@@H]3O[C@@H]2[C@@H]2OC(=O)[C@]3(C)C=CC(=O)[C@@]1(C)[C@@H]23` [S-130] was tested. Which IC50 did it give?
The IC50 was 0.225 µM.

For `COC(=O)C[C@H]1[C@]2(C)C3=C(C)[C@H](C4=CCOC4=O)C[C@H]3O[C@@H]2[C@@H]2OC(=O)[C@]3(C)C=CC(=O)[C@@]1(C)[C@@H]23` [S-131], which IC50 is on record?
Its IC50 is 1.18 µM.

How did the IC50 turn out when `COC(=O)C[C@H]1[C@]2(C)C3=C(C)[C@H](c4ccc(-c5cc(C(C)(C)C)cc(C(C)(C)C)c5)cc4)C[C@H]3O[C@@H]2[C@@H]2OC(=O)[C@]3(C)C=CC(=O)[C@@]1(C)[C@@H]23` [S-132] was run?
The IC50 was 0.142 µM.

With `COC(=O)C[C@H]1[C@@H]2CC3=C(C)[C@H](c4ccc(-c5cc(C(C)(C)C)cc(C(C)(C)C)c5)cc4)C[C@H]3O[C@@H]2[C@@H]2OC(=O)[C@]3(C)C=CC(=O)[C@@]1(C)[C@@H]23` [S-133] as the compound, how does the IC50 read?
The IC50 was 0.186 µM.

Which IC50 does the source give for `COC(=O)C[C@H]1[C@@H]2CC3=C(C)[C@H](c4ccc(-c5cc(C(C)(C)C)cc(C(C)(C)C)c5)cc4)C[C@@H]3O[C@@H]2[C@@H]2OC(=O)[C@]3(C)C=CC(=O)[C@@]1(C)[C@@H]23` [S-134] here?
Its IC50 is 0.091 µM.

`COC(=O)C[C@H]1[C@]2(C)C3=C(C)[C@@H](c4ccc(-c5cc(C(C)(C)C)cc(C(C)(C)C)c5)cc4)C[C@H]3O[C@@H]2[C@@H]2OC(=O)[C@]3(C)C=CC(=O)[C@@]1(C)[C@@H]23` [S-135] was tested. Which IC50 did it give?
Its IC50 is 0.185 µM.

Reference: patent publication US20240336622A1 (The Board of Regents of The University of Texas System, priority 2021, published 2024)
